By EC50 is commonly meant the concentration at which the effect is half-maximal. Lower therefore signals higher potency in that assay.

Our source for the EC50 values is patent publication US20240010659A1, “NEW THIADIAZOLOPYRIMIDONE DERIVATIVES” (Hoffmann-La Roche Inc., priority 2021, published 2024).

The subject of this test is mutant HTT protein (mHTT). In words: Homogeneous Time Resolved Fluorescence (HTRF) assay for HTT lowering in GENEAe020-A cells. In kind it is cell-based. As to conditions: reduction of mHTT in Huntington patient human cells (GENEAe020-A cell line), 48 hours incubation, mean from three replicates. Here is the method: Homogeneous Time Resolved Fluorescence for HTT Lowering
The HTRF assay was adapted from Weiss et al. (Analytical Biochemistry Volume 395, Issue 1, 1 Dec. 2009, Pages 8-15 and Analytical Biochemistry Volume 410, 2011, Pages 304-306) to cells from GENEAe020-A cell line (https://hpscreg.eu/cell-line/GENEAe020-A).
Compounds were tested for the effect of mutant HTT levels in Huntington patient human cells (GENEAe020-A cell line) using Homogeneous Time Resolved Fluorescence (HTRF) directed towards mutant HTT protein (mHTT). The GENEAe020-A cell line was derived by Genea Biocells from human blastocysts of HD donors. After assessing viability, cells were plated into 384 well collagen coated plates in growth media. Once cells adhered, media was removed and test compounds dissolved in DMSO were diluted with buffer solution and added to the adherent cells. Controls included experiments with no cells, DMSO with no compound, and Hsp90 inhibitor control. Cells were incubated with compounds and controls for 48 hours. Then, the cells were lysed and transferred to an assay plate containing HTRF labeled monoclonal antibodies developed by Paul Patterson (Ko et al., Brain Research Bulletin, Volume 56, Numbers 3 and 4, 2001, Pages 319-329) which recognize specific areas of the HTT protein. The terbium labeled “donor” antibody (2B7) binds to the N-terminus of the HTT protein and the Alexa488 labeled “acceptor” antibody (MW1) is specific for the polyglutamine region of the protein. Binding of the acceptor labeled antibody is more efficient for the extended polyglutamine repeats of mutant HTT protein which translates into a signal boost which enables the specific measurement of mutant HTT protein level. The HTRF donor and acceptor detection reagents were incubated with the cell lysate and the ratio between the signals of the two fluorophores is indicative of the relative quantities of mHTT.
For `Cc1cn2nc(-c3cc(=O)n4nc(C5CCNCC5)sc4n3)cc(C(F)(F)F)c2n1` [Example 9, 7-[2-methyl-8-(trifluoromethyl)imidazo[1,2-b]pyridazin-6-yl]-2-(4-piperidyl)-[1,3,4]thiadiazolo[3,2-a]pyrimidin-5-one], it took 700 nM to reach a half-maximal effect (EC50).
`Cc1cn2nc(-c3cc(=O)n4nc(C5CCNCC5)sc4n3)cc(C)c2n1` [Example 2, 7-(2,8-dimethylimidazo[1,2-b]pyridazin-6-yl)-2-(4-piperidyl)-[1,3,4]thiadiazolo[3,2-a]pyrimidin-5-one] yielded an EC50 of 196 nM.
In the case of `Cc1cn2cc(-c3cc(=O)n4nc(C5CCNCC5)sc4n3)cc(F)c2n1` [Example 3, 7-(8-fluoro-2-methyl-imidazo[1,2-a]pyridin-6-yl)-2-(4-piperidyl)-[1,3,4]thiadiazolo[3,2-a]pyrimidin-5-one], the EC50 was determined as 7400 nM.
Under `Cc1cn2nc(-c3cc(=O)n4nc(C5(F)CCNCC5)sc4n3)cc(C)c2n1` [Example 8, 7-(2,8-dimethylimidazo[1,2-b]pyridazin-6-yl)-2-(4-fluoro-4-piperidyl)-[1,3,4]thiadiazolo[3,2-a]pyrimidin-5-one] stands 315 nM.
As for `Cc1cn2nc(-c3cc(=O)n4nc(N5C[C@@H](C)N[C@@H](C)C5)sc4n3)cc(C)c2n1` [Example 4, 7-(2,8-dimethylimidazo[1,2-b]pyridazin-6-yl)-2-[(3R,5S)-3,5-dimethylpiperazin-1-yl]-[1,3,4]thiadiazolo[3,2-a]pyrimidin-5-one], the figure is 2040 nM.
As for `Cc1cn2nc(-c3cc(=O)n4nc(C5CCNC6(CC6)C5)sc4n3)cc(C)c2n1` (stereo not drawn) [Example 7, 2-(4-azaspiro[2.5]octan-7-yl)-7-(2,8-dimethylimidazo[1,2-b]pyridazin-6-yl)-[1,3,4]thiadiazolo[3,2-a]pyrimidin-5-one], the figure is 302 nM.
In the case of `Cc1cn2nc(-c3cc(=O)n4nc(N5CCNC6(CC6)C5)sc4n3)cc(C)c2n1` [Example 6, 2-(4,7-diazaspiro[2.5]octan-7-yl)-7-(2,8-dimethylimidazo[1,2-b]pyridazin-6-yl)-[1,3,4]thiadiazolo[3,2-a]pyrimidin-5-one], the EC50 was found to be 5840 nM.
Under `Cc1cn2nc(-c3cc(=O)n4nc(N5CCNCC5)sc4n3)cc(C)c2n1` [Example 1, 7-(2,8-dimethylimidazo[1,2-b]pyridazin-6-yl)-2-piperazino-[1,3,4]thiadiazolo[3,2-a]pyrimidin-5-one] stands 821 nM; under `Cc1cn2nc(-c3cc(=O)n4nc(C5CCNC5)sc4n3)cc(C)c2n1` (stereo not drawn) [Example 10, 7-(2,8-dimethylimidazo[1,2-b]pyridazin-6-yl)-2-pyrrolidin-3-yl-[1,3,4]thiadiazolo[3,2-a]pyrimidin-5-one], 5220 nM.
